# Structures can show the parent of a compound that is named as a salt. Where two headings read alike, the source gives them in different places.
# Assays:
# TNF-alpha = details: several case studies and a pilot study; cited from earlier work
# [1] = cited from earlier work; for solubility in ethanol / alcohol: anhydrous ethanol or alcohol
# [2] = system: FLG Natural Antisense Transcripts in primary keratinocytes; experiment: Real time PCR of FLG Natural Antisense Transcripts after treatment of primary keratinocytes with small compounds; format: cell-based; details: small compounds 1 uM, dosed twice, 24 h after second dosing, vs vehicle control (FIG. 5)
# Experimental: Primary keratinocytes (from Promocell) were grown in a growth media (Keratinocyte Growth Media, Promocell cat #C-2011) at 37° C. with 5% CO2. One day before the experiment the cells were replated at approximately 5×10^4/ml (or about ⅓ dilution from 90% confluency) into 24-well collagen-coated plates (Beckton Dickinson BioCoat plates cat #35 6408) and incubated at 37° C. and 5% CO2 overnight. On the day of the experiment the media in the 24-well plates was changed to 1 ml fresh growth media. Small compounds were diluted in DMSO to the concentration of 1000 uM. On the day of the experiment this solution was diluted 1:100 in fresh growth media. Pure DMSO was diluted in media at the same ratio […] to treat vehicle control samples. To dose one well, […] of the compound or pure DMSO solution was added directly to well of a 24-well plate. The final concentration of compounds was 1 uM. Dosing volume was adjusted if a different concentration of compound was desired. After dosing the plates were incubated overnight at 37° C., 5% CO2. 24 h after addition of small compounds the media was replaced with fresh growth media and the dosing was repeated as described above. 24 h after second dosing RNA was extracted from the cells using SV Total RNA Isolation System from Promega (cat #Z3105) following the manufacturers' instructions. 600 ng of total RNA was added to the reverse transcription reaction performed using High Capacity cDNA kit from Applied Biosystems (cat #4368813) as described in the manufacturer's protocol. The cDNA from this reverse transcription reaction was used to monitor gene expression by real time PCR using BI Taqman Gene Expression Mix (cat #4369510) and primers/probes designed by AB (for example, assay ID #Hs00856927_gl for FLG). The following PCR cycle was used: 50° C. for 2 min, 95° C. for 10 min, 40 cycles of (95° C. for 15 seconds, 60° C. for […]) using StepOne thermal cycler (ABI). […] Fold change in gene expression after treatment with small compounds was calculated based on the difference in 18S-normalized dCt values between treated and mock-transfected samples.
# [3] = cited from earlier work
# [4] = cited from earlier work; remark: listed apart in the source
# [5] = system: patients with severe head trauma; details: peripheral vein injection plus standard procedures; cited from earlier work
smiles,measurement,setting,value
"CC(NC(C)(C)C)C(=O)c1cccc(Cl)c1.Cl (racemic) [Bupropion, (±)-1-(3-chlorophenyl)-2-[(1,1-dimethylethyl)amino]-1-propanone hydrochloride]",level of inflammatory mediator TNF-alpha,TNF-alpha,lowers
same,solubility in water,[1],highly soluble
same,levels of FLG Natural Antisense Transcripts,[2],significantly decreased
"CCc1ccc(CCOc2ccc(CC3SC(=O)NC3=O)cc2)nc1 (racemic) [Pioglitazone hydrochloride, [(±)-5-[[4-[2-(5-ethyl-2-pyridinyl)ethoxy]phenyl]methyl]-2,4-]thiazolidinedione monohydrochloride]","solubility in N,N-dimethylformamide","[1]; N,N-dimethylformamide",soluble
same,solubility in acetone,[1],very slightly soluble
same,solubility in acetonitrile,[1]; acetonitrile,very slightly soluble
same,solubility in ethanol / alcohol,[1],slightly soluble
same,solubility in ether,[1]; ether,insoluble
same,solubility in water,[1],practically insoluble
"COC(=O)C1=C(C)NC(C)=C(C(=O)O[C@@H]2CCCN(Cc3ccccc3)C2)[C@@H]1c1cccc([N+](=O)[O-])c1.Cl (relative stereo) [Bendipine, (4R)-rel-1,4-Dihydro-2,6-dimethyl-4-(3-nitrophenyl)-3,5-pyridinedicarboxylic acid 3-methyl 5-[(3R)-1-(phenylmethyl)-3-piperidinyl]ester hydrochloride]",levels of FLG Natural Antisense Transcripts,[2],significantly decreased
"COC(=O)C1=C(C)NC(C)=C(C(=O)OC(C)C)C1c1cccc2nonc12 (stereo not drawn) [Isradipine, 3,5-Pyridinedicarboxylic acid, 4-(4-benzofurazanyl)-1,4-dihydro-2,6-dimethyl-, methyl 1-methylethyl ester]",solubility in acetone,[1],freely soluble
same,solubility in chloroform,[1],freely soluble
same,solubility in ethanol / alcohol,[1],soluble
same,solubility in methylene chloride,[1]; methylene chloride,freely soluble
same,solubility in water,[1]; 37° C.,< 10 µg/mL
same,solubility in water,[1],practically insoluble
"O=C([O-])CCc1nc(-c2ccccc2)c(-c2ccccc2)o1.[K+] [Oxaprozin potassium, 4,5-diphenyl-2-oxazolepropionic acid, potassium salt]",solubility in ethanol / alcohol,[1],slightly soluble
same,solubility in water,[1],very soluble
same,PK in water,[3]; in water,9.7
"CN1C(C(=O)Nc2ccccn2)=C(O)c2ccccc2S1(=O)=O [Piroxicam, 4-hydroxyl-2-methyl-N-2-pyridinyl-2H-1,2,-benzothiazine-3-carboxamide 1,1-dioxide]",solubility in aqueous solutions,[1]; aqueous solutions,slightly soluble
same,solubility in dilute acid,[1]; dilute acid,sparingly soluble
same,solubility in ethanol / alcohol,[1],slightly soluble
same,solubility in most organic solvents,[1]; most organic solvents,sparingly soluble
same,solubility in water,[1],sparingly soluble
same,pKa of weak basic pyridyl nitrogen,[3]; pyridyl nitrogen,1.8
"CC1(C)O[C@@H]2[C@@H](CO[C@@]3(COS(N)(=O)=O)OC(C)(C)O[C@@H]23)O1 [Topiramate, 2,3:4,5-Di-O-isopropylidene-β-D-fructopyranose sulfamate]",pH of saturated solution,[4],6.3
same,solubility in acetone,[1],freely soluble
same,solubility in alkaline solutions,"[1]; alkaline solutions containing sodium hydroxide or sodium phosphate, pH of 9 to 10",most soluble
same,solubility in chloroform,[1],freely soluble
same,solubility in dimethyl sulfoxide,[1]; dimethyl sulfoxide,freely soluble
same,solubility in ethanol / alcohol,[1],freely soluble
same,levels of FLG Natural Antisense Transcripts,[2],significantly decreased
"COCCOC(=O)C1=C(C)NC(C)=C(C(=O)OC(C)C)C1c1cccc([N+](=O)[O-])c1 (stereo not drawn) [nimodipine, isopropyl 2-methoxyethyl 1,4-dihydro-2,6-dimethyl-4-(m-nitrophenyl)-3,5-pyridinedicarboxylate]",Glasgow outcome score values,[5],higher
same,cerebral metabolism,[5],improved
same,cerebral perfusion pressure,[5],significantly higher
same,intracranial pressure,[5],lower
same,jugular glucose,[5],lower
same,jugular lactate,[5],lower
same,jugular venous oxygen saturation,[5],significantly higher

# — patent US11390868B2, “Treatment of filaggrin (FLG) related diseases by modulation of FLG expression and activity” (CuRNA, Inc., priority 2009, dated 2022)
